pIC50, pKi: −log10 of the molar value. Where “and” joins values, the source holds several entries; their conditions need not be identical. Identical values can stand only once. Like-named read-outs stand apart in the source and are kept apart here.
Experiments:
[1] = biological target: T1, Nav1.7 (Homo sapiens (Human), UniProt Q15858); settings: data cited from the table at page 103 in WO2012/007868; read-out: IC50 against Nav1.7 channel; cited from earlier work
[2] = biological target: T1, Nav1.7; test: Manual patch clamp assay, two pulse protocol; type: cell-based
Experimental: Manual patch clamp recordings are conducted at RT using the voltage-clamp amplifier (Axon Instruments or HEKA electronik). Electrodes are pulled with P-97 electrode puller (Sutter Instrument). The electrode resistances are 1-3 MOhm when intercellular solution is filled. Currents are lowpass filtered between 2-5 kHz and digitally sampled at 10 kHz.
The extracellular and intercellular solutions for human Nav1.7 and NaV1.5 consist of the following composition:
Extracellular recording solution (mM): 135 NaCl, 5 KCl, 2 CaCl2, 1 MgCl2, 10 HEPES, and 10 Glucose, pH 7.4 adjusted with NaOH; and
Intercellular solution (mM): 120 CsF, 15 NaCl, 10 EGTA, and 10 HEPES, pH 7.2 adjusted with CsOH.
After whole-cell configuration is achieved, cell is monitored at least 10 minutes to allow cell dialysis with pipette solution. To evaluate of inhibitory effects of test compounds, the cells are clamped at −120 or −130 mV. […]
Peak currents evoked by Test 1 and Test 2 pulses are sampled with Clampex (Axon Instruments) or Pulse+Pulse Fit (HEKA). Averaged peak currents under vehicle or test compounds are calculated from 3 data points at end of each condition. Inhibitory effect (% inhibition) of test compound is calculated as bellow; % inhibition=[1−Averaged peak current (Compound)/Averaged peak current (Vehicle)]×100 [Math.5] […]

[3] = biological target: T2, Nav1.5 (Homo sapiens (Human), UniProt Q14524); test: FRET assay; type: cell-based; settings: HEK293 cells expressing human Nav1.5 channels; read-out: activity (IC50) against Nav1.5
T2 sequence (Q14524 whole entry): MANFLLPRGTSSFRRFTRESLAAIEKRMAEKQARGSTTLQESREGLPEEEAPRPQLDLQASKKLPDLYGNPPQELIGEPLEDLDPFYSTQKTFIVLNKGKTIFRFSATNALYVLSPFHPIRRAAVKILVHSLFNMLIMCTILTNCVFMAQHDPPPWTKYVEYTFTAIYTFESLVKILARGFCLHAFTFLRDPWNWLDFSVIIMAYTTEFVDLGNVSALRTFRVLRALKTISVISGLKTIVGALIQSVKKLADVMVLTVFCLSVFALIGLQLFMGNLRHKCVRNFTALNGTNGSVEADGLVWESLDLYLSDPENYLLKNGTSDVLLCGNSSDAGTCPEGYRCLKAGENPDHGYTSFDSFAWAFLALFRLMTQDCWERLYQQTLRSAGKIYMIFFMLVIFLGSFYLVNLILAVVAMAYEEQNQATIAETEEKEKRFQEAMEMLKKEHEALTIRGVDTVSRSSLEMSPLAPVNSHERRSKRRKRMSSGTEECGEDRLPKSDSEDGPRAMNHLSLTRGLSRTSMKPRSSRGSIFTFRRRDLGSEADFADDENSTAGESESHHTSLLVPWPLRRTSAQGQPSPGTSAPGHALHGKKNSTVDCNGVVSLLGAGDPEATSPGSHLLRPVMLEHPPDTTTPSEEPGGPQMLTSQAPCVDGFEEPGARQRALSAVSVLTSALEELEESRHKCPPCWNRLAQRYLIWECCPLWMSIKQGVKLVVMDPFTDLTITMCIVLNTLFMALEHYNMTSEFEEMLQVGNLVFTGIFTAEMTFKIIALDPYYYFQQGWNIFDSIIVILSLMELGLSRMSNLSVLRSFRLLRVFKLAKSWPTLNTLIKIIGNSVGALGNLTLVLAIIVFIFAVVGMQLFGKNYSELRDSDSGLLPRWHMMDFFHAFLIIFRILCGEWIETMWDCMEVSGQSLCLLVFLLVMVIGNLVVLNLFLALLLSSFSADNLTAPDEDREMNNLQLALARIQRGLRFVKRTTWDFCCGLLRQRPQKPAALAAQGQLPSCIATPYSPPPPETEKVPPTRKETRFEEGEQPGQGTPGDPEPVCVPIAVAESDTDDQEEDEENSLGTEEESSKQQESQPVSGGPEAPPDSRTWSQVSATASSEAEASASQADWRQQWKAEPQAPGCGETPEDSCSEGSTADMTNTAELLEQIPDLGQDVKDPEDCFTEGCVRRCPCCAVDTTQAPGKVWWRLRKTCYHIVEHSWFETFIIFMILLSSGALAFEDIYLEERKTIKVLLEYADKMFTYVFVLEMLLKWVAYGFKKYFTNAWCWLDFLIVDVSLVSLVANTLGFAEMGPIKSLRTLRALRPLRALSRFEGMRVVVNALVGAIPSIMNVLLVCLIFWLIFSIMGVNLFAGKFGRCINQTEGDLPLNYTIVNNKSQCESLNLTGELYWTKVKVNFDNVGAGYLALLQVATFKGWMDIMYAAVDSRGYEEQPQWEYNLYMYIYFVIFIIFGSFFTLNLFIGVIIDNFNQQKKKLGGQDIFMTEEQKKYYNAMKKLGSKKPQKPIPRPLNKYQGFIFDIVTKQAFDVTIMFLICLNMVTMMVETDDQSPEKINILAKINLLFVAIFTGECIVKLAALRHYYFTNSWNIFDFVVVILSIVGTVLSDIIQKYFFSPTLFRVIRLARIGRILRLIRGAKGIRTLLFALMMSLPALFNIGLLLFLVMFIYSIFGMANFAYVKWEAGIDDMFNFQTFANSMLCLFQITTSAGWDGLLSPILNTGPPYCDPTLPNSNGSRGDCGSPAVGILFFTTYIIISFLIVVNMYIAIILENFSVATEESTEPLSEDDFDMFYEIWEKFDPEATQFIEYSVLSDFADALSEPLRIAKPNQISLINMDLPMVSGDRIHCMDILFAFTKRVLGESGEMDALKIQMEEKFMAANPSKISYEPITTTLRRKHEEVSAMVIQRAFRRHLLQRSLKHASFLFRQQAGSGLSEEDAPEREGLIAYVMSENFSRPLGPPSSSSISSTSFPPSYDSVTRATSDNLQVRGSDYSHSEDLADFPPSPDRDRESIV
Experimental: This screen is used to determine the effects of compounds on human Nav1.5 channels, utilizing the cell imaging technology by Hamamatsu Photonics's Functional Drug Screening System (FDSS). The changes of membrane potential are monitored with fluorescent membrane potential dye pair, DiSBAC2(3) and CC2-DMPE, using FRET technology.
HEK293 cells expressing human Nav1.5 channels are grown in T225 flasks, in a 5% CO2 humidified incubator to about 80% confluence. HEK293 cells expressing human Nav1.5 channels are maintained in Dulbecco's Modified Eagle Medium (high glucose) supplemented with 10% fetal calf serum (FCS), 100 units/mL Penicillin, 100 microgram/mL Streptomycin and 500 microgram/mL Geneticine. […]
The data is analyzed and reported as normalized ratios of intensities measured in the 465 nm and 575 nm channels. […]
“FI465B”=the mean of fluorescence intensity as baseline (before Na^+ ligand addition) at 465 nm
“FI575B”=the mean of fluorescence intensity as baseline (before Na^+ ligand addition) at 575 nm
“FI465Max” maximum fluorescence intensity at 465 nm after Na^+ stimulation
“FI575Min”=minimum fluorescence intensity at 575 nm after Na^+ stimulation
(§1) This analysis is performed using a computerized specific program designed for FDSS generated data. Fluorescence ratio values are plotted using XLfit to determine an IC50 value for each compound.

[4] = biological target: T1, Nav1.7; test: Affinity to resting state (Kr) and inactivated state (Ki), manual patch clamp; type: cell-based; settings: read-out: Ki (inactivated state) against Nav1.7
From the text: Affinity to Resting State (Kr) and Inactivated State (Ki) of Test Compound
The normalized steady-state inactivation curve is constructed using 2 sec (for vehicle) or 60 sec (for drugs) conditioning pulse to different potentials followed immediately by the test pulse to −10 mV. Peak currents are plotted as fraction of the maximum current at the conditioning potentials ranging from −120 mV to 0 mV for Nav1.7. V1/2 and k values are estimated from Boltzmann fits. The affinity of test compound to resting state of Na channels (Kresting or Kr) is assessed by depolarizing test pulse from a negative holding potential of −130 mV, where virtually all channels are in the resting state. Kr value is calculated by a conventional 1:1 binding model: Kresting(Kr)={[drug]Imax,drug/(Imax,control−Imax,drug)} [Math.6] where Kresting (=Kr) is a dissociation constant for the resting state and [drug] is compound concentration. Imax,control and Imax,drug are peak currents in the absence and presence of compound, respectively.
Interaction of the compound with the channel on inactivated state is evaluated by the following equation: Kinact(Ki)={[drug]/((1+[drug]/Kr)*exp(−ΔV/k)−1)} [Math.7] where Kinact (=Ki) is a dissociation constant for the inactivated state. ΔV is the compound-induced voltage shift of half maximal voltage of Boltzmann curve and k is the slop factor on presense of compound.

[5] = biological target: T1, Nav1.7; test: EFS-FRET assay; type: cell-based; settings: CHO cells expressing human Nav1.7 channels; read-out: IC50 against Nav1.7
Experimental: This screen is used to determine the effects of compounds on human Nav1.7 channels, utilizing electrical field stimulation (EFS) system in 96-well plate format on FDSS (Hamamatsu Photonics) platform. The changes of membrane potential are monitored with FRET dye pair, DiSBAC2(3) and PTS 18.
CHO (Chinese hamster ovary) cells expressing human Nav1.7 channels are grown in T225 flasks, in a 5% CO2 humidified incubator to about 80% confluence. Media composition consists of HAM/F12 with Glutamax I, 10% FCS, 100 units/mL penicillin and 100 microgram/mL hygromycin.
Seed each cell lines (1×10^5 cells/well) into 96-well plates prior to experimentation.
Incubate at 37° C. in 5% CO2 for 24 hours.
Wash each well with assay buffer (140 mM NaCl, 4.5 mM KCl, 10 mM D-Glucose, 2 mM CaCl2, 1 mM MgCl2, 10 mM HEPES, pH 7.4 adjusted with NaOH) twice.
Add 1st loading solution containing 10 microM PTS 18 and 0.06% Pluronic F-127 in assay buffer.
Incubate the plate at rt in dark for 1 hour.
Remove 1st loading solution and add 2nd loading solution containing 12.5 microM DiSBAC2(3), 1.25 mM Xylene Fast Yellow and 0.0075% Pluronic F-127 in assay buffer.
Place the plate under the dark at rt for 25 minutes.
Add compound solutions into the assay plate.
Set the assay plate in FDSS and place an EFS device on the plate.
Measure EFS-induced fluorescent response by FDSS.
The data are analyzed and reported as normalized ratios of intensities measured at […]. The process of calculating these ratios is performed as follows:
as §1

[6] = biological target: T2, Nav1.5; test: Automated electrophysiology assay (Qpatch HTX); type: cell-based; settings: Test 2 pulse, read-out: Inactivated IC50 against Nav1.5
Experimental: Automated Electrophysiology Assay
Automated patch clamp recordings are conducted for evaluation of inhibitory effect against Nav1.5 with the Qpatch HTX system according the manufacturer's specifications (Sophion).
The extracellular and intercellular solutions consist of the following composition:
Extracellular recording solution (mM): 137 NaCl, 4 KCl, 1.8 CaCl2, 1 MgCl2, 10 HEPES, and 10 Glucose, pH 7.4 adjusted with NaOH
Intercellular solution (mM): 135 CsF, 10 NaCl, 5 EGTA, and 10 HEPES, pH 7.3 adjusted with CsOH.
To evaluate of inhibitory effects of test compounds against Nav1.5, the cells are clamped at −110 mV. […]
Peak currents evoked by Testl and Test 2 pulses are sampled with Qpatch assay software (Sophion). Averaged peak currents under vehicle or test compounds are calculated from 3 data points at end of each condition. Inhibitory effect (% inhibition) of test compound is calculated as bellow; % inhibition=[1−Averaged peak current (Compound)/Averaged peak current (Vehicle)]×100 [Math.4]
Inhibitory effects (% inhibition) of each concentration are measured from at least 2 cells. Averaged inhibitory effects are plotted against test concentration and IC50 values at Test 1 (Closed IC50) or Test 2 (Inactivated IC50) are calculated with Hill equation, respectively. […]

T1 sequence (Q15858 whole entry): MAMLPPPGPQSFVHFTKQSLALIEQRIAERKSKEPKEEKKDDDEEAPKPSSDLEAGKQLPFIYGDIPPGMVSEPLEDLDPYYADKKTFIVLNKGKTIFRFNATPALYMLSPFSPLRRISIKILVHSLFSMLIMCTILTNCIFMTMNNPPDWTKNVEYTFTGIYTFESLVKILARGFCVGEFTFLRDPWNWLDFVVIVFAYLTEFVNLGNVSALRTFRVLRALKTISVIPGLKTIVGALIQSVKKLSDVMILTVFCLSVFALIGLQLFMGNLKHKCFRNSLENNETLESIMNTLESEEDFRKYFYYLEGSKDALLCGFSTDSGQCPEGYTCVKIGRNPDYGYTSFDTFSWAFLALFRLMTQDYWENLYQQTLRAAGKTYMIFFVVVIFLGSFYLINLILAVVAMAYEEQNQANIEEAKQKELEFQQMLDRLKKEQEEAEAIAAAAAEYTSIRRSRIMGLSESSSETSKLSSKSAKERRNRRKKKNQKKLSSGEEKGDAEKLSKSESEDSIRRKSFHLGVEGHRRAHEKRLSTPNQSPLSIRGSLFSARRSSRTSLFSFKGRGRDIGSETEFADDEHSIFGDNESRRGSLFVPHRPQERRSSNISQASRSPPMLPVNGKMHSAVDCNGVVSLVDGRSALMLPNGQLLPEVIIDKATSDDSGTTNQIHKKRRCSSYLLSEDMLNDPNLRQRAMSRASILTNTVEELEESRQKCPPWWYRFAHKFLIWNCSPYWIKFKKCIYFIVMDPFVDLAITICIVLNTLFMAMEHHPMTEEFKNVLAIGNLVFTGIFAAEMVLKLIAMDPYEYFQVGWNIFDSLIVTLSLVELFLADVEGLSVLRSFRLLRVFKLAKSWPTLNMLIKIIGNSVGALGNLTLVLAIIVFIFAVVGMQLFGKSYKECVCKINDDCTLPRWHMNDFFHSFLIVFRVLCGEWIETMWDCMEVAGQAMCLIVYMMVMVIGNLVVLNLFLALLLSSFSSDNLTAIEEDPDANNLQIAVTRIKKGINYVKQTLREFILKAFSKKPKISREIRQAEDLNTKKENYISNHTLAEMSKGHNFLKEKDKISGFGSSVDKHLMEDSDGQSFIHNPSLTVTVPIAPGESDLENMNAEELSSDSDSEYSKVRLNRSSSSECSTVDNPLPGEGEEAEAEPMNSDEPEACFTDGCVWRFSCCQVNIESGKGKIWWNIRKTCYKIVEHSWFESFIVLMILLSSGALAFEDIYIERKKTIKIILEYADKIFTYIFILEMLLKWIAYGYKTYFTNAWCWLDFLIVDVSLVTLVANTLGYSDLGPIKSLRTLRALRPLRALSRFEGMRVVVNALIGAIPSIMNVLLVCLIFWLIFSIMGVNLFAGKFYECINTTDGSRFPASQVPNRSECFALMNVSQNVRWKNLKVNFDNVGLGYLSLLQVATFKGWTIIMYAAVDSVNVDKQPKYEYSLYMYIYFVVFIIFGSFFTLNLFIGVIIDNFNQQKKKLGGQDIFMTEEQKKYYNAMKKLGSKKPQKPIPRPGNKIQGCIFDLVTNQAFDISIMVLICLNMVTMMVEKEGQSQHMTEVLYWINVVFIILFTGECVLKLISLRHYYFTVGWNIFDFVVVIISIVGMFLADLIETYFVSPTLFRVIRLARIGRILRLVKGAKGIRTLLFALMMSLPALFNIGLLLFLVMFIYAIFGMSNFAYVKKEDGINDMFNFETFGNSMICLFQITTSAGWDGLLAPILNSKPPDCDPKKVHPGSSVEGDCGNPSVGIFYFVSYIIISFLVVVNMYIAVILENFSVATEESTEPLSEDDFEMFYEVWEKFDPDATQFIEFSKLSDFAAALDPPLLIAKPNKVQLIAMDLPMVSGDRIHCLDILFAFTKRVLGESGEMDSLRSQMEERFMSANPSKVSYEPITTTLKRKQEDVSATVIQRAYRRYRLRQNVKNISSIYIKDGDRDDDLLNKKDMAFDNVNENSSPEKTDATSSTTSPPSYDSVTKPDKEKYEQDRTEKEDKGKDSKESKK

Row | Compound | pIC50 [5] | further results
1 | CS(=O)(=O)NC(=O)c1ccc(COc2cccc(C3CCNCC3)c2)cc1 [WO2012/007868 Example 35] | – | pIC50 [1]: < 5.52
2 | Cc1c(OCc2cc(F)c(C(=O)NS(C)(=O)=O)cc2F)cccc1-n1cccn1 [WO2012/007868 Example 102] | – | pIC50 [1]: < 5.52
3 | CS(=O)(=O)NC(=O)c1ccc(COc2cccc(-c3ccc(OCC4CC4)nc3)c2)cc1 [Example 2, 4-((3-(6-(cyclopropylmethoxy)pyridin-3-yl)phenoxy)methyl)-N-(methylsulfonyl)benzamide] | 7.08 and 7.10 | selectivity for Nav1.7 over Nav1.5 [2]: 75 fold; pIC50 [3]: < 4.52; pKi [4]: 7.66
4 | CS(=O)(=O)NC(=O)c1ccc(COc2cccc(-c3cccnc3)c2)cc1 [reference compound (A), reference compound] | < 5.52 | –
5 | CS(=O)(=O)NC(=O)c1ccc(COc2cccc(-c3cccnc3)c2)c(F)c1 [reference compound (B), reference compound] | 5.89 | –
6 | CS(=O)(=O)NC(=O)c1ccc(COc2cccc(-c3cc(CC4CC4)on3)c2)c(F)c1 [Example 84, 4-((3-(5-(cyclopropylmethyl)isoxazol-3-yl)phenoxy)methyl)-3-fluoro-N-(methylsulfonyl)benzamide] | 7.30 | –
7 | CS(=O)(=O)NC(=O)c1ccc(COc2cccc(-c3ccc(OCC4CC4)nc3)c2)c(F)c1 [Example 14, 4-((3-(6-(cyclopropylmethoxy)pyridin-3-yl)phenoxy)methyl)-3-fluoro-N-(methylsulfonyl)benzamide] | 7.30 | –
8 | CS(=O)(=O)NC(=O)c1cc(F)c(COc2cccc(-c3cccnc3)c2)cc1F [reference compound (C), reference compound] | 6.22 | –
9 | CS(=O)(=O)NC(=O)c1cc(F)c(COc2cccc(-c3ccc(OCC4CC4)nc3)c2)cc1F [Example 24, 4-((3-(6-(cyclopropylmethoxy)pyridin-3-yl)phenoxy)methyl)-2,5-difluoro-N-(methylsulfonyl)benzamide] | 7.30 | –
10 | CS(=O)(=O)NC(=O)c1ccc(COc2cc(F)cc(-c3ccc(OCC4CC4)nc3)c2)cc1 [Example 30, 4-((3-(6-(cyclopropylmethoxy)pyridin-3-yl)-5-fluorophenoxy)methyl)-N-(methylsulfonyl)benzamide] | – | pIC50 [6]: < 4.52
